Measured values from US10898873B2, “Lecithin compositions and methods of making and using such lecithin compositions” (Archer Daniels Midland Company, priority 2015, dated 2021).

Assay: Solubility of sorbitol in ethanol
Assay type: physicochemical
Description: Sugar alcohols can become heavily supersaturated upon cooling. When water is slowly replaced with ethanol, there can be a significant change in the maximum concentration at which the solute is completely soluble. In this example, blends of a 70% sorbitol solution and ethanol were made.

- clarity of sorbitol/ethanol blend (70% sorbitol solution and ethanol, ratio 70:30): completely clear
- clarity of sorbitol/ethanol blend (blends with greater than 30% ethanol): crystallization of the sorbitol
Compound: OC[C@@H](O)[C@@H](O)[C@H](O)[C@@H](O)CO [sorbitol]
